This note sets out measurements from patent US8178506B2, “Oligomeric compounds and compositions for use in modulation of small non-coding RNAs” (Regulus Therapeutics Inc., priority 2003, dated 2012).

In the oligonucleotide strings, read from the 5' end, every base follows the letter of its sugar. An asterisk marks phosphorothioate; unmarked linkages are phosphodiester. Other units and linkages are bracketed, terminal groups are in braces. A string of capitals states the bases alone. e = 2'-O-(2-methoxyethyl) (MOE); [5mC] = 5-methylcytosine; d = 2'-deoxy (DNA)

The first data set relates to T47D cells. As to the kind of experiment: Caspase-3 activity assay (apoptosis) in T47D cells. To be noted: T47D cells, 200 nM oligomeric compound, 48 hours; experiment of Table 10.
As for “328652 (eG*eG*e[5mC]*e[5mC]*eT*dA*dA*dT*dA*dT*d[5mC]*d[5mC]*d[5mC]*dT*dA*e[5mC]*e[5mC]*e[5mC]*e[5mC]*eA; antisense) [compound 328652]”, the “Fold Increase over UTC (caspase-3 activity, apoptosis)” value is 1.2 fold. On the same count and under the same terms, next, “328399 (antisense eA*eT*eG*eG*eG*dT*dA*d[5mC]*d[5mC]*dA*d[5mC]*d[5mC]*dA*dG*dA*eA*e[5mC]*eA*eT*eG) [compound 328399]”: 1.0 fold.

In the case of “328657 (eA*eA*eA*eA*eA*dT*dA*dA*dT*d[5mC]*dT*d[5mC]*dT*dG*d[5mC]*eA*e[5mC]*eA*eG*eG; antisense) [compound 328657]”, the “Fold Increase over UTC (caspase-3 activity, apoptosis)” value was 0.8 fold. With “328696 (e[5mC]*eT*e[5mC]*eT*eA*dG*d[5mC]*dT*d[5mC]*d[5mC]*d[5mC]*dT*d[5mC]*dA*d[5mC]*e[5mC]*eA*eG*eT*eG; antisense) [compound 328696]”, the “Fold Increase over UTC (caspase-3 activity, apoptosis)” value was found to be 1.5 fold. “328408 (antisense eT*eA*eG*eA*e[5mC]*dA*dA*dA*dA*dA*d[5mC]*dA*dG*dA*d[5mC]*eT*e[5mC]*eT*eG*eA) [compound 328408]”: the “Fold Increase over UTC (caspase-3 activity, apoptosis)” value is recorded as 0.9 fold.

The same data set, now with this note: T47D cells, 200 nM oligomeric compound, 48 hours; experiment of Table 11.
As for “328655 (eT*eA*e[5mC]*eA*eA*d[5mC]*dG*dG*d[5mC]*dA*dT*dT*dG*dT*d[5mC]*e[5mC]*eT*eG*eA*eA; antisense) [compound 328655]”, the “Fold Increase over UTC (caspase-3 activity, apoptosis)” value came to 0.7 fold. In the case of “328404 (antisense eG*eT*eA*eG*eA*dT*d[5mC]*dT*d[5mC]*dA*dA*dA*dA*dA*dG*e[5mC]*eT*eA*e[5mC]*e[5mC]) [compound 328404]”, the “Fold Increase over UTC (caspase-3 activity, apoptosis)” value was 0.9 fold. On to “328426 (antisense eG*eG*eT*eT*eG*dG*d[5mC]*d[5mC]*dG*d[5mC]*dA*dG*dA*d[5mC]*dT*e[5mC]*eG*eT*eA*e[5mC]) [compound 328426]”, for which the “Fold Increase over UTC (caspase-3 activity, apoptosis)” value came out at 1.3 fold.

Staying with this data set, now noted: T47D cells, 200 nM, 48 hours, relative to untreated control.
For the substance “328381 (eA*e[5mC]*eA*eG*eG*dT*dG*dA*dG*d[5mC]*dG*dG*dA*dT*dG*eT*eT*e[5mC]*eT*eG; antisense) [compound 328381]”, the “Fold Increase over UTC (caspase activity)” value came to 1.1. On to “328372 (eT*eT*eT*eG*eA*dT*dA*dG*dT*dT*dT*dA*dG*dA*d[5mC]*eA*e[5mC]*eA*eA*eA; antisense) [compound 328372]”, for which the “Fold Increase over UTC (caspase activity)” value is listed as 1.0.

The data set is the same for the next values; noted with them: caspase assay, 200 nM; conclusion from Tables 9-12.
For “AAAAATAATCTCTGCACAGG (antisense; same sequence listed as MOE 5-10-5 gapmer and as uniform MOE, further chemistry not given here) [ISIS 328657]”, the “apoptosis in T47D cells” value is “prevent or have a protective effect from apoptosis”. For the substance “TGCCATGAGATTCAACAGTC (2'-MOE gapmer, phosphorothioate, chemistry not fully specified) [ISIS 328415]”, the “apoptosis in T47D cells” value was “induce apoptosis”.

As to “CCGAGGGTCTAACCCAGCCC (antisense; same sequence listed as MOE 5-10-5 gapmer and as uniform MOE, further chemistry not given here) [ISIS 328638]”, the “apoptosis in T47D cells” value is given as “prevent or have a protective effect from apoptosis”. Still for that read-out and setting: next, “SEQ ID NO 528: gapmer of Tables 9-12 having this SEQ ID NO (antisense eT*eG*eT*eT*eG*d[5mC]*d[5mC]*dT*dA*dA*d[5mC]*dG*dA*dA*d[5mC]*eA*e[5mC]*eA*eG*eA)”: “prevent or have a protective effect from apoptosis”. On to “GGCCTAATATCCCTACCCCA (antisense; same sequence listed as MOE 5-10-5 gapmer and as uniform MOE, further chemistry not given here) [ISIS 328652]”, for which the “apoptosis in T47D cells” value is reported as “induce apoptosis”.

In the case of “ISIS 328397: 5-10-5 2′-MOE gapmer PS; targets mir-103-1 pri-miRNA (eT*eT*eG*eA*eT*d[5mC]*d[5mC]*dA*dT*dA*dT*dG*d[5mC]*dA*dA*e[5mC]*eA*eA*eG*eG)”, the “apoptosis in T47D cells” value is given as “induce apoptosis”.
